Patent EP4467141A1, “PYRAZOLO-QUINOLINES AS SELECTIVE INHIBITORS OF GENOTOXIC STRESS-INDUCED IKK/NF- KB PATHWAYS FOR CANCER THERAPY” (Max-Delbrück-Centrum für Molekulare Medizin in der …, priority 2023, dated 2024)

Legend:
Assay in all cases: Kinase panel study
Format in all cases: biochemical
Details in all cases: read-out: Percentage of inhibition; for inhibition at 1 µM: 1000nM; for inhibition at 10 µM: 10000nM
[1] = target: T1, FLT3 D835Y (Homo sapiens, UniProt P36888, D835Y)
T1 construct: purchased Thermo Fisher Scientific
T1 sequence (P36888 27-993 D835Y): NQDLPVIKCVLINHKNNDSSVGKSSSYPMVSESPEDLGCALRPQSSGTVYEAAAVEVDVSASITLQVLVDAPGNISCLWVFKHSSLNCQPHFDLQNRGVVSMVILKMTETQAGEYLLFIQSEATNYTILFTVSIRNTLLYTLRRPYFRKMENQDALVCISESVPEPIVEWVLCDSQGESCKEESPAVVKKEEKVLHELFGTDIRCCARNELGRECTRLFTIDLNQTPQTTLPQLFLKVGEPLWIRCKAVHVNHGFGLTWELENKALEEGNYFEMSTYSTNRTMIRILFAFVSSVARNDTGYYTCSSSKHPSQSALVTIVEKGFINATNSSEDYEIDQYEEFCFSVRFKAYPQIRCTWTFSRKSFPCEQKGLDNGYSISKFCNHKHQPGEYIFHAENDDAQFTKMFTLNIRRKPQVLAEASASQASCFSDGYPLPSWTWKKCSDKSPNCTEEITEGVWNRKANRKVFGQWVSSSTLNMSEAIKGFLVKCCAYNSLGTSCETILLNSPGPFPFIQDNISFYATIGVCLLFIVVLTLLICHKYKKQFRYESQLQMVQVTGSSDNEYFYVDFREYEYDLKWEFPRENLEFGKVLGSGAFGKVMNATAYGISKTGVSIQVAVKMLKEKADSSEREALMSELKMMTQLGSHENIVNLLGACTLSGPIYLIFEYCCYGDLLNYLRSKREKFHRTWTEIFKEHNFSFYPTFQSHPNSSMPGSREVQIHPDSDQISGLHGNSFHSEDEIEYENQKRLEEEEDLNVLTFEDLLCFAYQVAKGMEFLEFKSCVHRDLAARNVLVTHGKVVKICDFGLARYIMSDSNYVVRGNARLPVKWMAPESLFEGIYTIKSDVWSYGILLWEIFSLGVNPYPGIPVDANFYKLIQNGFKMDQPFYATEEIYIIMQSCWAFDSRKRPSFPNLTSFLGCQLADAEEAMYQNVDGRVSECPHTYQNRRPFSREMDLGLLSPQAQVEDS
In short: (§1)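 Kinase inhibition was determined by a contract provider in cell-free ZLyte or Adapta assays. Results are expressed as % inhibition at 10 or 1 µM.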

[2] = target: T2, NUAK1 (ARK5) (Homo sapiens, UniProt O60285)
T2 construct: purchased Thermo Fisher Scientific
T2 sequence (O60285 1-661): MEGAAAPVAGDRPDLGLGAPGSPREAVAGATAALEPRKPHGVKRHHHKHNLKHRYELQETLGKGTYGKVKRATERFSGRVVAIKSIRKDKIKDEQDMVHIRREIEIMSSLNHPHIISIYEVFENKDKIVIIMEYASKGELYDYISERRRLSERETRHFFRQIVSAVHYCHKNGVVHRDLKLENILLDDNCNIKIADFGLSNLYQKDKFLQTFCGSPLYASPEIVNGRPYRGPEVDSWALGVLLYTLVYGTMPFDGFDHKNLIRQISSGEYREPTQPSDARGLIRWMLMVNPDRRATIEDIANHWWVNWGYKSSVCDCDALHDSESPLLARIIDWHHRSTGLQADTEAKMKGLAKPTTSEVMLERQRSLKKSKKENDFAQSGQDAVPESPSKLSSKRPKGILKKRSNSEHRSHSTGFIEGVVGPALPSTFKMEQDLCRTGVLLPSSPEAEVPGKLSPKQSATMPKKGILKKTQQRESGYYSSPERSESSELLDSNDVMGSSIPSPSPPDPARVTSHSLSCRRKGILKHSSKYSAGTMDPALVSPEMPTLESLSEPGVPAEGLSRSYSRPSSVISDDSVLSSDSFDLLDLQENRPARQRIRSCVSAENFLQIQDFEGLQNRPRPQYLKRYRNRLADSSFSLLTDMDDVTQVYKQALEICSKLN
In short: as §1

[3] = target: T3, PDGFRA (PDGFR alpha) (Homo sapiens, UniProt P16234)
T3 construct: purchased Thermo Fisher Scientific
In short: as §1

[4] = target: T4, PIM1 (Homo sapiens, UniProt P11309)
T4 construct: purchased Thermo Fisher Scientific
In short: as §1

[5] = target: T5, STK22D (TSSK1) (Homo sapiens, UniProt Q9BXA7)
T5 construct: purchased Thermo Fisher Scientific
T5 sequence (Q9BXA7 1-367): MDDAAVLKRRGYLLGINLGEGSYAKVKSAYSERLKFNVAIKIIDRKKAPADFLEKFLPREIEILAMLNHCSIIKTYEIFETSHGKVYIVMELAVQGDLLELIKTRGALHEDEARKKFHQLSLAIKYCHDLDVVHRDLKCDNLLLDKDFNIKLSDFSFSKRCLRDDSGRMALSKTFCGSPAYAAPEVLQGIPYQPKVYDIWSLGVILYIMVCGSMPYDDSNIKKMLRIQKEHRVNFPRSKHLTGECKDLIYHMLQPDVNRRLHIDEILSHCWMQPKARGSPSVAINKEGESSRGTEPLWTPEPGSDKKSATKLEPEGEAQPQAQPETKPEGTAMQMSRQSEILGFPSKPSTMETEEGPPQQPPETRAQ
In short: as §1

T4 sequence (P11309 whole entry): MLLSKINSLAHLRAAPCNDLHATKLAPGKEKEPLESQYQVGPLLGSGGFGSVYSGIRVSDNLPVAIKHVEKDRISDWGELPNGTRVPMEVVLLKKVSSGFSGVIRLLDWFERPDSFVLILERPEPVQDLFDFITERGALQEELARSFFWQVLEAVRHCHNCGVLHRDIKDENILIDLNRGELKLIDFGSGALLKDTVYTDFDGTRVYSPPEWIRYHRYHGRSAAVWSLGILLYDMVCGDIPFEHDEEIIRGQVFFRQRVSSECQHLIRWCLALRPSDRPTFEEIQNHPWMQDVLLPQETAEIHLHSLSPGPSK
T3 sequence (P16234 24-1089): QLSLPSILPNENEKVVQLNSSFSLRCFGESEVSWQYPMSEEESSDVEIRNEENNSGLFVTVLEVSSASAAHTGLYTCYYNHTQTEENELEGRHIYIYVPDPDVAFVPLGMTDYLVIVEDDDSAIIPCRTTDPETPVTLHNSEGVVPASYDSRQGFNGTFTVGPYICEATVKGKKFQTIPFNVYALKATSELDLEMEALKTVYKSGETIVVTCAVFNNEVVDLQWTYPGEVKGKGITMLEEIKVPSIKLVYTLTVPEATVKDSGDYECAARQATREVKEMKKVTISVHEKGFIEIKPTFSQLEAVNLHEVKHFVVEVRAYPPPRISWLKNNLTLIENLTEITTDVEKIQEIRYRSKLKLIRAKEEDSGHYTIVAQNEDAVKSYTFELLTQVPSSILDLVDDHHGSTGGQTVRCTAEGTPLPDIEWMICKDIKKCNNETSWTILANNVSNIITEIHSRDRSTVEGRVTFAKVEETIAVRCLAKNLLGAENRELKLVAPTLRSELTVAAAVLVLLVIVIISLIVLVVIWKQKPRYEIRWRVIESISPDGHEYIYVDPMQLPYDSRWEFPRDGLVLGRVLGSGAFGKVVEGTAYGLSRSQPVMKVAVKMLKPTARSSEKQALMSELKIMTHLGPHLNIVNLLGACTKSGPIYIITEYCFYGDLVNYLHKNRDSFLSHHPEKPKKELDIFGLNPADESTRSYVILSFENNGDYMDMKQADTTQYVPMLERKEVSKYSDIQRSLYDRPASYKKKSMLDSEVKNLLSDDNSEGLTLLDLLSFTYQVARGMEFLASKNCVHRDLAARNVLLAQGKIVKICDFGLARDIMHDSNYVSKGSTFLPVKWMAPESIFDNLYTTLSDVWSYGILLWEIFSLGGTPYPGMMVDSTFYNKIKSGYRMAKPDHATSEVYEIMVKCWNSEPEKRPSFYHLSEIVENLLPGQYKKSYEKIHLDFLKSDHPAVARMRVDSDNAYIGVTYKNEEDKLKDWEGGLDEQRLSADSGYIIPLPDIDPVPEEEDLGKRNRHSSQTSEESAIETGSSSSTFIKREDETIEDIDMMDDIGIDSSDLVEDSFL

| Compound | inhibition at 1 µM [1] [%] | inhibition at 10 µM [1] [%] | inhibition at 1 µM [2] [%] | inhibition at 10 µM [2] [%] | inhibition at 1 µM [3] [%] | inhibition at 10 µM [3] [%] | inhibition at 1 µM [4] [%] | inhibition at 10 µM [4] [%] | inhibition at 1 µM [5] [%] | inhibition at 10 µM [5] [%] |
| --- | --- | --- | --- | --- | --- | --- | --- | --- | --- | --- |
| COc1ccc2c(c1OC)c(=O)n1c3ccc(O)cc3c3ccnc2c31 [MW01, 5-Hydroxy-10,11-dimethoxy-9H-benzo[c]indolo[3,2,1-ij][1,5]naphthyridin-9-one] | 81 | 92 | 48 | 66 | 20 | 47 | 11 | 24 | 11 | 22 |
| COc1ccc2cc3c(N)nn(C(=O)c4cccc(N(C)C)c4)c3nc2c1 [MW05, (3-Amino-7-methoxypyrazolo[3,4-b]quinolin-1-yl)-[3-(dimethylamino)phenyl]methanone] | 10 | 15 | 6 | 11 | 7 | 6 | 8 | -9 | 2 | 5 |
